# Experiments:
# Format in all cases: cell-based
# [1] = tested on: T lymphocytes isolated from RyR163C mice; test: Fura-2 intracellular calcium imaging in T lymphocytes from RyR163C mice; conditions: for Δ1/Δ2 ratio: preincubated, fura-2
# Excerpt: (§1) FIGS. 3A and 3B show intracellular calcium measurements in T lymphocytes. […] Shown are average traces recorded from at least 20 cells in one representative experiment.
# [2] = tested on: T lymphocytes isolated from control WT mice; test: Fura-2 intracellular calcium imaging in T lymphocytes from wild-type mice; conditions: SERCA blocker applied in about 0 mM extracellular calcium; WT cells, compared to 5×FAD and RyR163C
# Excerpt: as §1
# [3] = tested on: T lymphocytes isolated from 5×FAD mice; test: Fura-2 intracellular calcium imaging in T lymphocytes from 5×FAD mice; conditions: SERCA blocker applied in about 0 mM extracellular calcium; 5×FAD T lymphocytes
# Excerpt: as §1
compound,measurement,setting,value
O=C1CN(/N=C/c2ccc(-c3ccc([N+](=O)[O-])cc3)o2)C(O)=N1 [dantrolene],basal intracellular calcium levels,[1]; dantrolene 50 μM,reducing
same,responses to thapsigargin,[1]; dantrolene 50 μM,increasing
same,Δ1/Δ2 ratio,[1]; dantrolene 50 μM,reduced
C/C=C(/C)C(=O)O[C@H]1C(C)=C2[C@H]([C@@H]1OC(=O)CCCCCCC)[C@@](C)(OC(C)=O)C[C@H](OC(=O)CCC)[C@@]1(O)[C@H]2OC(=O)[C@@]1(C)O [thapsigargin],intracellular calcium transients evoked (Δ2=F3−F2),[2],larger
same,intracellular calcium transients evoked (Δ2=F3−F2),[3],barely detectable
same,intracellular calcium transients evoked (Δ2=F3−F2),[1]; SERCA blocker applied in about 0 mM extracellular calcium,barely detectable
ryanodine,basal intracellular calcium levels,[1]; ryanodine 800 μM,reducing
same,responses to thapsigargin,[1]; ryanodine 800 μM,increasing
same,Δ1/Δ2 ratio,[1]; ryanodine 800 μM,reduced

# Source: patent US20210311075A1, “METHODS FOR DETECTING DISORDERS RELATED TO CALCIUM DISCHARGE FROM INTRACELLULAR STORES” (The Regents of the University of California, priority 2017, published 2021)
